The conditions of series [1]: buffer, pH 6.8, 24 h.
The nature of a further series: in vivo. Conditions: rat.
The nature of the next series: physchem. The following applies: buffer, pH 6.8.

Structures are written as SMILES. Converted amounts (≈) assume the structure as drawn.

As a reminder, the half-life is the time needed for the level to fall by half in the phase considered. For orientation: thermodynamic solubility means the concentration in solution at equilibrium with solid.

As for `CCS(=O)(=O)c1cc2cc(C[C@](O)(CC(C)(C)c3ccc(F)cc3C(N)=O)C(F)(F)F)[nH]c2cn1` [BI 653048], in series [1], the Therm_solubility turned out to be 5 µg/mL. Also, the half-life in “in vivo” is 4.2 h.
As for `CC(C)(CC(O)(Cc1cc2cc(N3CCOCC3)ncc2[nH]1)C(F)(F)F)c1cccc(S(C)(=O)=O)c1` (stereo not drawn), the thermodynamic solubility at 24 h in “physchem” is 47 µg/mL (≈ 89.4 µM).
